Results published in ChEMBL document CHEMBL1134400, “Short peptides with induced beta-turn inhibit the interaction between HIV-1 gp120 and CD4” (J Med Chem, 2001).
Residues, ends and D or L forms follow the SMILES beside them.

System: Human immunodeficiency virus 1
Assay: Inhibitory activity against interaction between HIV-1 gp120 and CD4
Assay type: functional

IC50 [µM] | Molecule
1 | CC(C)C[C@H](NC(=O)[C@H](CC(=O)O)NC(=O)[C@H](Cc1ccccc1)NC(=O)[C@H](CO)NC(=O)[C@@H]1CCCN1C(=O)[C@H](CCC(N)=O)NC(=O)[C@@H](N)CS)C(=O)N[C@@H](CCC(N)=O)C(=O)N[C@@H](CS)C(=O)O (H-CQPSFDLQC-OH)
50 | H-ARQPSFDLQCGF-OH
6 | H-PSFDLQ-OH
